SMILES | melting point [°C]
CCCCCCCCCCCCCCCCCCOc1cc(OCCCOc2ccc(C(C)(C)C)cc2)cc(N(CC(=O)OC)CC(=O)OC)c1 | 56 to 58
Cc1cc(Cn2c(-c3ccccc3)nc(Cl)c2CO)ccc1OCc1ccccc1 | 184 to 186
CC(=O)Nc1nc2c(Oc3cc(-c4ccc(C(F)(F)F)cc4I)ncn3)cccc2s1 | 242 to 243
CCOC(=O)CN1C(=O)[C@@H](N)CCc2ccccc21 | 106 to 108
C=CCCC[C@H]1CC[C@H](c2ccc(C(C)=O)cc2)CC1 | 47.6
ClC1(NC2(Cc3ccncc3)NN=Cc3ccncc32)C=CC=CC1 (stereo not given) | 220 to 221
COc1ccc(C=NC2CCN(c3cc4c(cc3F)c(=O)c(C(=O)O)cn4-c3ccc(F)cc3)C2)cc1 (stereo not given) | 270 to 271
COc1cc2c(cc1OC)C(=O)C(=Cc1ccc(O)cc1)CC2 | 197 to 199
O=C(O)Cc1cc(-c2ccccc2)sc1NC(=O)c1ccccc1 | 121 to 122
O=[N+]([O-])c1ccc(-n2nccn2)cc1 | 183 to 184
CCOP(=O)(/C=C/c1cn(-c2ccccc2)nc1OCc1ccc(OCc2nc(N3CCOCC3)sc2C)c(OC)c1)OCC | 88 to 90
O=C(NN=C1c2ccc(F)cc2CCC1c1ccccc1)Nc1ccc(C(F)(F)F)cc1 (stereo not given) | 158 to 160
O=C(CCCC1CCCCC1)C1=C(O)COC1=O | 38 to 42
CCc1ccc(-c2nc3ccccc3[nH]2)cc1 | 258
CC(C)C(=O)CNC(=O)c1ccc(Cl)cc1 | 118 to 119
CC(=O)NCCCC(C)C1CC=C2C3=C(CCC21C)C1(C)CCC(O)C(C)(C)C1CC3 (stereo not given) | 219 to 221
c1ccc(-c2cc(OCC3CO3)no2)cc1 (stereo not given) | 98 to 99
CC(c1ccc(-c2ccccc2)c(F)c1)c1csc(NS(C)(=O)=O)n1 (stereo not given) | 128 to 129
Nc1nnc(N2CCN(CCOc3ccc(Br)cc3)CC2)[nH]1 | 166 to 167
CN1OCC(C(O)c2cc(C(C)(C)C)c(O)c(C(C)(C)C)c2)C1=O (stereo not given) | 137 to 140
COc1ccc2c(c1)c(Cc1csc(-c3ccncc3)n1)c(C)n2C(=O)c1ccc(Cl)cc1 | 109 to 114
CCc1cccc2[nH]c3c(c12)CC(N(C)C)CC3 (stereo not given) | 157 to 161
Cc1cccc(C)c1NC(=O)CCCc1cccnc1 | 98 to 99
O=C(O)c1nc2n(c(=O)c1OCc1ccccc1)CCOC2 | 171
CCC(=O)OC1(C(=O)CCl)C(C)CC2C3CCC4CC(=O)CCC4(C)C3=CCC21C (stereo not given) | 140 to 142

SMILES | melting point [°C]
COC(=O)C1=C(CF)NC(C)=C(C(=O)OC(C)C)C1c1cccc(OC)c1OC (stereo not given) | 89 to 91
O=c1c2ccccc2[nH]c2c(OCCN(CCCl)CCCl)cccc12 | 131 to 133
CCO[C@@H](Cc1ccc(OCCc2nc(-c3ccc(-c4ccccc4)cc3)oc2C)c2ccsc12)C(=O)O | 163 to 164
CCCCCCCCCCCCCCCCCCNC(=O)c1ccccc1N | 89 to 90
CC(=O)N1c2ccccc2Sc2cc(O)c3ccccc3c21 | 230
CCCCNC(=O)NS(=O)(=O)c1cc(Cl)ccc1C(=O)OC(C)C | 129
CCOC(=O)CCCN(C(=O)c1ccc(Cl)cc1)c1cccc2ccc(OC)cc12 | 92 to 94
CC(CNC(c1ccccc1)c1ccccc1)NC(c1ccccc1)c1ccccc1 (stereo not given) | 72 to 75
CCC1(CC)CN(C(C)(C)C)C(=O)C(CC)(CC)N1OC(C)c1ccccc1 (stereo not given) | 85 to 90
O=Cc1cccc(-c2cc3c4c(ccn4C(=O)CNC3)c2)c1 | 192 to 194
COc1cccc2cc(C(=O)O)c(C(=O)O)cc12 | 210 to 212
CCOC(=O)c1cccn2c(S(=O)(=O)Cl)c(C)nc12 | 182 to 183
O=C(NCCSc1ccccc1)n1cc(F)c(=O)[nH]c1=O | 130 to 133
CCCCCNC(=O)N(C)c1cccc(-c2ccc(C=C(OC)C(=O)O)cc2OCCOCC)c1 | 78.2
CC(C)OCc1c(S(C)(=O)=O)ccc(Br)c1Cl | 87 to 91
CC1(c2ccccc2)C(=O)Nc2cc(Cl)ccc2C1=O (stereo not given) | 174 to 175
O=C=Nc1cc([N+](=O)[O-])c(Cl)cc1F | 43 to 46
CCOC(=O)/C(=C\Nc1cc(C)cc(C)c1)c1ccc(OC)cc1 | 93 to 94
O=S(=O)(Oc1ccc2sccc2c1)c1ccccc1 | 80 to 81
CCOC(=O)C(=O)c1cn(CC)c2cc(-c3ccc(C(F)(F)F)cc3)ccc12 | 139 to 141
CS(=O)(=O)c1ccc(-c2cnn(Cc3ccc(O)cc3)c(=O)c2-c2ccc(F)cc2)cc1 | 225 to 226
O=C(c1ccc(Cl)cc1)c1cc(-c2ccncc2)c(N2CCOCC2)s1 | 176
Clc1ccc(-c2cc[nH]c2)cc1 | 117 to 118
O=C(O)Cc1ccc(OCCNC(=O)C2Cc3ccccc3N2S(=O)(=O)c2ccc(-c3ccc(F)cc3)cc2)c(Cl)c1 (stereo not given) | 102 to 110
COc1cc(C)c2c(c1C)C(SC)C(=O)N2 (stereo not given) | 226 to 227

SMILES | melting point [°C]
CN(C)Cc1nc(-c2ncn3c2[C@@H]2CCN2C(=O)c2c-3ccc(F)c2Cl)no1 | 166 to 169
COc1ccc(Cc2nnc3c4ccccc4c(Nc4cccc(-c5nn[nH]n5)c4)nn23)cc1 | 292 to 293
COC(=O)c1ccc(S(C)(=O)=O)c(-c2cc(C(C)C)no2)c1 | 102 to 104
CCC1=C(c2cccc(F)c2)C(=O)N(c2cccc(C(F)(F)F)c2)C1 | 77.5 to 79
O=C(O)Cc1cc(C(=O)C=Cc2ccc(C(=O)O)cc2)ccc1O | > 260
COc1cc(OCc2cccc([N+](=O)[O-])c2)ccc1C(C)=O | 111 to 114
CCn1nnc2cc3c(cc2c1=O)OC1CCCN1C3=O (stereo not given) | 186 to 188
Cc1c(CN(CCc2c(I)c3ccccc3n2C)C(=O)C(F)(F)F)ncn1S(=O)(=O)N(C)C | 141 to 143
O=C(Nc1nc(-c2ccc([N+](=O)[O-])cc2)cs1)OCC(Cl)(Cl)Cl | 207 to 209
O=C1NC(=O)C(Cc2ccc(NC(=O)c3sc(Nc4ccccc4)c4c3CCc3cnoc3-4)cc2)S1 (stereo not given) | 151 to 152
CC1(O)OC(=O)C(c2c(F)cc(F)cc2F)=C1c1cccs1 (stereo not given) | 134 to 136
NC1C(=O)N(CC2C3CC4CC(C3)CC2C4)c2ccccc2N(c2ccccc2)C1=O (stereo not given) | 209 to 210
CCOC(=O)C1=C2NC=C(C(N)=O)C(=O)N2C(C)CC1 (stereo not given) | 251
c1ccc(COc2ccc(NC3=NN(c4ccccc4)CC3)cc2)cc1 | 187 to 188
CCC1C(C)=NN=C(c2ccc(OC)c(OC)c2)c2cc(C)ccc21 (stereo not given) | 156 to 158
COc1ccc(C=CC(=O)O)cc1-c1cc2c(cc1OCCN1CCCCC1)C(C)(C)CCC2(C)C | 251 to 253
CN(C)C1(c2ccccc2)CCC(c2c[nH]c3ncccc23)CC1 (stereo not given) | 130 to 133
CS/C=C(/C)n1c(=O)n(C)c2cc(F)ccc21 | 110
C[C@@H](n1cnc2cc(F)c(F)cc2c1=O)[C@](O)(Cn1cncn1)c1ccc(F)cc1F | 212 to 213
N#Cc1ccc(C(=O)Nc2ccc(-n3nc(C(F)(F)F)cc3C(F)(F)F)cc2)cc1 | 169 to 171
COC(=O)c1ccccc1C1(c2ccccc2)OCC(CCl)O1 (stereo not given) | 90 to 91
O=C(Nc1ccc(F)nc1)c1cccc(-c2cccc3oc(Cc4cccc(C(F)(F)F)c4)cc23)c1 | 117 to 118
CNC(=O)NCC(C)(C)N | 150
CCCNC(=O)c1cnc2ccccn2c1=O | 120 to 122
Cc1ccc(C2CCN(C(=O)CCC(=O)c3ccc4c(c3)CCN(C)CC4)CC2)cc1 | 111 to 112

SMILES | melting point [°C]
O=C1C(=Cc2ccc(Cl)cc2)CC23OC2C=CC=C13 (stereo not given) | 162 to 164
O=c1ccsn1Cc1ccc2c(c1)CCO2 | 100 to 102
CCn1cc(C(=O)NCc2ccc(Cl)cc2)c(=O)c2cc(CCl)oc21 | 192 to 193
CCCCOC(=O)Cn1cccc1-c1nc(-c2ccc(OC)cc2)c(-c2ccc(OC)cc2)s1 | 98 to 101
O=C(NCc1ccc(C(=O)O)c(OCc2ccccc2)c1)OCc1ccccc1 | 139 to 140
NC(=O)CCC(Nc1ccc2ccccc2n1)C(=O)O (stereo not given) | 222 to 226
CC(C)(C)OC(=O)Nc1nc(C(=CC(C)(C)C(=O)OCc2ccccc2)C(=O)O)cs1 | 175 to 177
Cn1cc(C(=O)C(=O)NC2=CC(=O)OC2)c2ccccc21 | 262 to 264
O=C1CSC(C(=O)O)Cc2cc3c(cc21)OCCO3 (stereo not given) | 208 to 209
CC(C)C1(Cl)Cc2cc(OCC(=O)O)c(Cl)c(Cl)c2C1=O (stereo not given) | 158 to 159
Cc1nc2ccccc2c(NCCO)c1Br | 154 to 155
O=C(CP(=O)(O)O)NC1CCCCC1 | 180 to 183
CC(C#N)c1cccc2c(-c3ccc(Cl)cc3)nccc12 (stereo not given) | 128 to 130
CSc1cccc(Oc2ncccc2C(=O)NCc2ccc(C(C)(C)O)cc2)c1 | 107 to 109
COC1CCN(c2cccc(-c3cnc4[nH]cc(C(=O)C(C)(C)C)c4n3)c2)C1 (stereo not given) | 194 to 195
CCS(=O)c1cc(C(=O)NCC2CCCN2CC2CC2)c(OC)cc1N (stereo not given) | 158 to 162
CCCCN(CCCC)C(=O)/C=C/c1ccc(Cn2c(-c3ccc(O)cc3)c(C)c3cc(O)ccc32)cc1 | 126 to 128
CCN1CCCC1c1cccc(OC(=O)NC)c1 (stereo not given) | 67 to 69
CNC(=O)c1cc(C(=O)NOCC2CC2)c(Nc2ccc(I)cc2C)c(F)c1F | 198 to 202
CCOc1cc(CCl)nc(OCC)n1 | 38 to 39
O=C(O)C(Cl)(Cl)CCCCCCCCCCCCSc1ccccc1 | 74
NCc1nc(-c2ccc(-c3cnc4[nH]c(=O)n(CCC5CCOCC5)c4n3)cc2)n[nH]1 | 258 to 260
c1ccc(CN2CCC(c3nc(-c4ccc(-c5ccccc5)cc4)c[nH]3)CC2)cc1 | 110 to 112
CC(C)(C)CN1C(=O)[C@@H](CC=O)O[C@H](c2ccccc2Cl)c2cc(Cl)ccc21 (relative stereo) | 173 to 176
CCCCCCCCCCCCCCCCCCOc1cc(OCCCOc2ccc(S(C)(=O)=O)cc2)cc(N(CC(=O)OC)CC(=O)OC)c1 | 70 to 72

— a melting point compilation (Tetko et al.; mined from patent text by program, amines drawn as free bases though some values may be those of a salt)
